Results on 1 molecule are retold here after US9670217B2, “Process for preparing chlorins and their pharmaceutical uses” (UNIVERSIDADE DE COIMBRA, priority 2008, dated 2017).

Series [1] concerns SKMEL 188 (human melanoma). Briefly: Cell photosensitization, filtered halogen lamp, MTT. In kind it is cell-based. The settings on record: [Luzitin-Cl-c] = 20 μM. As for the experimental part: (§1) Irradiation in in vitro experiments was performed using either a halogen lamp or a laser source. In the first case, a 500 W halogen lamp was placed 50 cm from the irradiated plate to insure a homogeneous irradiation. A cooled water filter (d=35 mm) and a 600 nm cut off filter were placed between the lamp and samples. The fluence rate reaching samples was 3 mW/cm^2. The emission spectrum of the halogen lamp was recorded using a spectroradiometer IL2000 (Spectrocube), FIG. 1. In the second case, three Lynx external cavity diode lasers TEC 500 powered by PilotPC 500 Laser Controllers (Sacher Lasertechnik, Marburg, Germany) were employed. The laser energies were stable at 40 mW for the 748 nm laser, 10 mW for the 649 laser and 10 mW for the 633 laser. The laser energies were regularly measured with a Coherent LaserCheck. In some in vitro experiments, the laser light was focused on an optical fiber through a collimator in microbench, and delivered to the cells. This system reduced the 748 nm laser light to 30 mW.
The cell lines employed in halogen lamp irradiation were the MCF7 (human breast carcinoma), SKMEL 188 (human melanoma) and S91/I3 (mouse melanoma) cells. They were used both for cytotoxicity and photocytotoxicity experiments. MCF7 cells were grown supplemented with 10% fetal calf (FBS) serum, 25 units/ml of penicillin, and 25 μg/ml of streptomycin. Human melanoma cells SKMEL-188 were grown in F10 medium supplemented with 10% fetal calf serum (FCS), 100 units/ml of penicillin, and 100 μg/ml of streptomycin. I3 subline of Cloudman S91 melanoma cells were cultured in RPMI 1640 medium supplemented with 100 units/ml of penicillin, 100 μg/ml streptomycin and 5% fetal calf serum (FCS) (Gibco BRL). […]
Cytotoxicity. Cell metabolic efficiency and viability were determined by the uptake and reduction of 3-(4,5-dimethylthiazol-2-yl)-2,5-diphenyl tetrazolium bromide (MTT) to an insoluble formazan dye by cellular microsomal enzymes. […] The 96-well culture plate was shaken for 0.5 min at room temperature and immediately read for optical density at 560 nm using an ELISA reader (GENios Plus; Tecan Trading AG, Switzerland). The cell survival was expressed by the absorbance changes of the formazan salt, and survival rate was given as the percent ratio of viable treated cells vs. the number of viable untreated cells. Number of cells was determined from linear regression of a calibration curve.
Cell photosensitization. […] The values were obtained from three independent experiments and expressed as percent of cell survival with reference to control cells, which were manipulated in the same manner but without incubation with photosensitizer and without illumination.

The nature of series [2]: Fluorescence quantum yield. In kind it is physicochemical. The conditions noted are these: in aqueous solution. As for the experimental part:
The absorptions of both reference and sample solutions were matched at ca 0.2 at the excitation wavelength of 515.5 nm, and the solutions were diluted by a factor 10 before collecting the fluorescence. The fluorescence quantum yield was obtained from the ratio of the fluorescence bands of the sample vs the reference, multiplied by the fluorescence quantum yield of the reference, 0.012 according to [12], after correction for the difference of refractive indexes of ethanol and toluene.
(§2) This is indicative of little aggregation between the molecules, which exist mostly as monomers at these concentrations in the solvents studied. Table 1 presents typical red and infrared molar absorption coefficients (εmax) and wavelength maxima. The same table also presents representative fluorescence quantum yields (ΦF) of Luzitins. The fluorescence quantum yields decrease of these molecules decrease in the presence of chlorine substituents, a fingerprint of the heavy atom effect expected for such molecules.

For series [3], the system named is S91 (mouse melanoma). Briefly: Cell photosensitization, filtered halogen lamp, MTT. In kind it is cell-based. The conditions noted are these: [Luzitin-Cl-c] = 20 μM. As for the experimental part:
as §1
(§3) The cell lines employed in halogen lamp irradiation were the MCF7 (human breast carcinoma), SKMEL 188 (human melanoma) and S91/I3 (mouse melanoma) cells. They were used both for cytotoxicity and photocytotoxicity experiments. MCF7 cells were grown supplemented with 10% fetal calf (FBS) serum, 25 units/ml of penicillin, and 25 μg/ml of streptomycin. Human melanoma cells SKMEL-188 were grown in F10 medium supplemented with 10% fetal calf serum (FCS), 100 units/ml of penicillin, and 100 μg/ml of streptomycin. I3 subline of Cloudman S91 melanoma cells were cultured in RPMI 1640 medium supplemented with 100 units/ml of penicillin, 100 μg/ml streptomycin and 5% fetal calf serum (FCS) (Gibco BRL). All cell lines were cultivated as monolayer in Petri dishes of 60 mm diameter and incubated at 37° C. in a humid atmosphere containing 5% CO2.
(§4) Cytotoxicity. Cell metabolic efficiency and viability were determined by the uptake and reduction of 3-(4,5-dimethylthiazol-2-yl)-2,5-diphenyl tetrazolium bromide (MTT) to an insoluble formazan dye by cellular microsomal enzymes. The cell lines were grown in RPMI medium with 10% fetal calf serum, penicillin and streptomycin. Cells were maintained in 5% CO2, 95% air and 100% humidity. For determining cytotoxicity, these cells were plated in 96-well plates at a density of 1×10^4 cells well in complete media. After 24 h, the cells were incubated with photosensitizers at different concentrations (0.25 up to 50 μM) for 18 hours at 37° C. The cells were then washed twice with PBS and incubated in growth medium at 37° C. for 24 h. Next, the medium was replaced by 100 μl of fresh medium and 20 μl of MTT, and the cells were incubated with MTT for 3 h, with a final concentration of 0.5 mg/ml. Then the culture medium was replaced with DMSO-methanol solution (1:1) to dissolve the blue formazan crystals. The 96-well culture plate was shaken for 0.5 min at room temperature and immediately read for optical density at 560 nm using an ELISA reader (GENios Plus; Tecan Trading AG, Switzerland). The cell survival was expressed by the absorbance changes of the formazan salt, and survival rate was given as the percent ratio of viable treated cells vs. the number of viable untreated cells. Number of cells was determined from linear regression of a calibration curve.
(§5) Cell photosensitization. SKMEL 188, S91 and MCF7 cells were prepared as described above. […] The cells were incubated for 12 h at 37° C. and then irradiated at a 0.53 mW cm^2 fluence rate and in doses ranging from 0.1 to 0.64 J cm^2. We recall that photosensitizer uses only ca. ⅕ of the available fluence rate of the filtered halogen lamp. The MTT test was performed 24 h after irradiation. The values were obtained from three independent experiments and expressed as percent of cell survival with reference to control cells, which were manipulated in the same manner but without incubation with photosensitizer and without illumination. […]

Series [4] concerns MCF7 (human breast carcinoma). Described as above. In kind it is cell-based. The settings on record: [Luzitin-Cl-c] = 20 μM, filtered halogen lamp. As for the experimental part: as §1, §3, §4, §5
Series [5] can be described thus: Absorption spectra (λmax, molar absorption coefficient). The conditions noted are these: in aqueous solution. In kind it is physicochemical. As for the experimental part:
Absorption spectra were recorded on a Shimadzu UV-2100 spectrophotometer or with a Carry 50 Biospectrophotometer (Varian, Mulgrave, USA). Fluorescence spectra were measured with a Spex Fluorolog 3 spectrophotometer, with correction for the wavelength dependence system (RCA C31034 photomultiplier), or with a PerkinElmer LS 50 spectrofluorimeter. Transient absorption spectra were measured with an Applied Photophysics LKS 60 nanosecond laser flash photolysis kinetic spectrometer, using the third harmonic of a Spectra-Physics Quanta Ray GCR 130-01 Nd/YAG laser for excitation, a Hamamatsu 1P28 photomultiplier and a Hewlett-Packard Infinium oscilloscope (1 GS/s). Flash photolysis measurements were made in the presence of air and in argon saturated solutions. Photoacoustic calorimetry employed the same Nd/YAG laser, a home-made front-face photoacoustic cell with a 2.25 MHz Panametrics transducer (model 5676) and a Tektronix DSA 601 transient recorder. Room-temperature singlet-oxygen phosphorescence was measured at 1270 nm with a Hamamatsu R5509-42 photomultiplier, cooled to 193 K in a liquid nitrogen chamber (Products for Research model PC176TSCE005), following laser excitation of aerated solutions at 355 nm, using an adapted Applied Photophysics spectrometer. Singlet oxygen emission at 1270 nm was also monitored with a liquid nitrogen-cooled germanium detector (North Coast) coupled to a Tectronix Digitizing scope (TDS 520B), following sample excitation with 5 ns laser pulses of the third harmonic (355 nm) generated by a Q-switched Nd:YAG laser (Continuum Surelite II).
as §2

Series [6] is described as follows: Singlet oxygen quantum yield and lifetime (1270 nm phosphorescence). In kind it is physicochemical. The settings on record: in aqueous solution.

On to `O=S(=O)(O)c1ccc(Cl)c(-c2c3nc(c(-c4cc(S(=O)(=O)O)ccc4Cl)c4ccc([nH]4)c(-c4cc(S(=O)(=O)O)ccc4Cl)c4nc(c(-c5cc(S(=O)(=O)O)ccc5Cl)c5ccc2[nH]5)CC4)C=C3)c1` [Luzitin-Cl-c, 5,10,15,20-tetrakis(2-chloro-5-sulfonylphenyl)chlorin], for which the “LD50 (light dose to kill 50% of the cells)” value turned out to be 0.26 J/cm^2 in series [1], 0.13 J/cm^2 in series [3] and 0.3 J/cm^2 in series [4]. In addition, the “LD90 (light dose to kill 90% of the cells)” value in series [1] worked out at 0.46 J/cm^2; in series [3] it was 0.26 J/cm^2; in series [4], 0.7 J/cm^2. Also, the “ΦF (fluorescence quantum yield)” value in series [2] came out at 0.039. The εmax in series [5] is reported as 7,000 M^−1 cm^−1. The molecule further displayed a λmax in series [5] of 650 nm. The “ΦΔ (singlet oxygen quantum yield)” value in series [6] stood at 0.69.
